Measured values reported in patent US20050256103A1, “Indole derivative having piperidine ring” (Eisai Co., Ltd., priority 2004, published 2005).
pIC50: −log10 of the molar value. Like-named read-outs stand apart in the source and are kept apart here.

Experiments:
[1] = biological target: T1, 5-HT1A receptor (Sus scrofa, UniProt A0A4X1UTF5); assay: Affinity for serotonin 1A receptor: inhibition of [3H]MPPF binding in swine hippocampal membrane fraction; settings: for pIC50: swine hippocampal membrane, 37°C 30 min; for L/H ratio: low affinity IC50 divided by high affinity IC50, 1 or smaller = no intrinsic activity, 2 or greater = intrinsic activity
T1 construct: Swine hippocampus was homogenized in a 50 mM Tris-Hcl buffer; from tissue; host or cells: swine hippocampus, membrane fraction
T1 sequence (A0A4X1UTF5 1-422): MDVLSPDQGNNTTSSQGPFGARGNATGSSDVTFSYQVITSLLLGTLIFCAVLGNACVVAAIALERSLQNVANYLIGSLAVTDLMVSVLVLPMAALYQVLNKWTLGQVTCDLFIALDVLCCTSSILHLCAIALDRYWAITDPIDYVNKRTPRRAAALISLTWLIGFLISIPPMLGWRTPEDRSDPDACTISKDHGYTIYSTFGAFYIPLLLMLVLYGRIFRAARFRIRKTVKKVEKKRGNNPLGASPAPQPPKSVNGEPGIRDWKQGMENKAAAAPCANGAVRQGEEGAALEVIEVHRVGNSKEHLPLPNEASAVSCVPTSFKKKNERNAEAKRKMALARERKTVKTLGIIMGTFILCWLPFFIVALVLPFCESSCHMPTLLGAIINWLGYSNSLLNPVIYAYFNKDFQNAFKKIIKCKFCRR
From the text: (1) The affinity of a test substance for a 5-HT1A receptor was examined by an inhibition experiment, in which the inhibitory effect of the test substance against the binding of [^3H]-4-(2′-methoxy)phenyl-1-(2′-(N-2″-pyridinyl)-p-fluorobenzamido)ethyl-piperazine (MPPF) that selectively binds to the 5-HT1A receptor in a swine hippocampal membrane fraction was examined. The 5-HT1A receptor that is a G-protein binding receptor becomes a G-protein binding state with addition of MgCl2. In contrast, it becomes a G-protein non-binding state with addition of guanylylimido diphosphate (Gpp(NH)p). […] Thus, both the affinity of a test substance to the receptor that was in a state of not binding to the G-protein and the affinity of the test substance to the receptor that was in a state of binding to the G-protein were obtained. Then, the obtained values were compared to each other, so as to estimate the level of the intrinsic activity of the test substance. Theoretically, when the value (L/H) obtained by dividing the affinity of a test substance to the receptor that is in a low affinity state (IC50 value) by the affinity of a test substance to the receptor that is in a high affinity state (IC50 value) is 1 or less, the intrinsic activity thereof is zero. The greater this value, the higher the intrinsic activity that can be obtained.
Swine hippocampus was homogenized in a 50 mM Tris-Hcl buffer (pH 7.4; hereinafter referred to as buffer A) that had been cooled on ice. The suspension was centrifuged at 40,000×g for 15 minutes. The obtained pellet was suspended in buffer solution A, and the thus obtained solution was then centrifuged at 40,000×g for 15 minutes. The same operation was repeated 2 or 3 times. The finally obtained pellet was suspended in a buffer solution A in an amount 10 times the wet weight of the swine hippocampus, so as to obtain a membrane fraction. The obtained membrane fraction was stored at −80° C. until use.
A mixture (0.5 ml) used for incubation comprised an appropriate amount of the membrane fraction, a test substance with a desired concentration, MgCl2 (final concentration: 10 mM) or Gpp(NH)p (final concentration: 1 mM), [^3H]MPPF (final concentration: 0.5 nM), dimethyl sulfoxide (final concentration: 1% (v/v)), and a 50 mM Tris-Hcl buffer (pH 7.4). The reaction was initiated with addition of the membrane fraction, and the mixture was incubated at 37° C. for 30 minutes. After completion of the incubation, the mixture was subjected to vacuum filtration with a glass filter, using Cell Harvester. The filter was washed with buffer solution A that had been cooled on ice. Thereafter, radioactivity binding to the receptor was measured with a liquid scintillation counter. Non-specific binding was defined as binding detected in the presence of 10 μM WAY-100,635.

[2] = biological target: T2, serotonin 1A receptor (Mus musculus, UniProt Q64264); assay: Antagonistic effect on serotonin 1A receptor agonist (8-OH-DPAT)-induced hypothermia in mouse; type: in vivo; settings: CD-1 (ICR) male mice; inhibition of hypothermia by 8-OH-DPAT 0.5 mg/kg sc; test substance 15 minutes before agonist
T2 construct: into the rectum of CD-1 (ICR) male mice (25-45 g); from tissue; host or cells: living CD-1 (ICR) male mice (in vivo)
T2 sequence (Q64264 1-421): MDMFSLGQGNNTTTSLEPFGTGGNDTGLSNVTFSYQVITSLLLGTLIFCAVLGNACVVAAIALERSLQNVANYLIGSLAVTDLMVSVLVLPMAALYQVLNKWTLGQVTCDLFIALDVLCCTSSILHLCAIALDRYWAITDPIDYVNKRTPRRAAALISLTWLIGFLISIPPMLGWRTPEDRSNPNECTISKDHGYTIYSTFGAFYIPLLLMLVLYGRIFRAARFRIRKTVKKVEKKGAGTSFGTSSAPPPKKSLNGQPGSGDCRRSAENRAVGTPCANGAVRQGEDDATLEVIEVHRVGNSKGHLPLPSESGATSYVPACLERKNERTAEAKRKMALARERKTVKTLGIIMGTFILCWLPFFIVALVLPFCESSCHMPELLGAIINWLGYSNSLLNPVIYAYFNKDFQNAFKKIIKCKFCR
Method: (1) A thermistor probe was inserted at a depth of approximately 2 cm into the rectum of CD-1 (ICR) male mice (25-45 g), so as to measure the body temperature thereof. Body temperature is decreased by subcutaneous administration of serotonin 1A receptor agonist (8-hydroxy-dipropylaminotetralin (8-OH-DPAT) 0;5 mg/kg. Since a serotonin 1A antagonist inhibits such action, the antagonistic effect of a test substance to a serotonin 1A receptor was evaluated using the inhibitory effect of the hypothermia as an index. The test results are shown in Table 2 indicated below. A test substance was administered 15 minutes before the administration of the serotonin 1A agonist. A serotonin 1A partial agonist alone decreases the body temperature, depending on the degree of the agonistic action thereof. In addition, it has a weak antagonistic effect on 8-OH-DPAT-induced hypothermia.

[3] = [3H]MPPF 0.5 nM, receptor in high affinity (G-protein binding, MgCl2 10 mM) state, read-out: High affinity IC50
[4] = [3H]MPPF 0.5 nM, receptor in low affinity (G-protein non-binding, Gpp(NH)p 1 mM) state, read-out: Low affinity IC50

SMILES | pIC50 [1, 3] | pIC50 [1, 4] | L/H ratio [1] | ED50 [2] | pIC50 ([1]; High affinity IC50, [3H]MPPF 0.5 nM, receptor in high affinity (G-protein binding, MgCl2 10 mM) state) | pIC50 ([1]; Low affinity IC50, [3H]MPPF 0.5 nM, receptor in low affinity (G-protein non-binding, Gpp(NH)p 1 mM) state)
CNC(=O)c1ccc2ccn(C3CCN(CCc4c(OC)ccc5c4OC(C)(C)CC5O)CC3)c2c1 (stereo not drawn) [Compound 48, 1-{1-[2-(4-hydroxy-7-methoxy-2,2-dimethylchroman-8-yl)ethyl]piperidin-4-yl}-N-methyl-1H-indole-6-carboxamide] | 8.92 | 8.96 | 0.9 | 0.06 mg/kg, sc |  | 
COc1cc2c(cc1CCN1CCC(n3ccc4ccc(C(N)=O)cc43)CC1)C(=O)CC(C)(C)O2 [Compound 24, 1-{1-[2-(7-methoxy-2,2-dimethyl-4-oxochroman-6-yl)ethyl]piperidin-4-yl}-1H-indole-6-carboxamide] | 9.66 | 9.77 | 0.8 | 0.3 mg/kg, sc |  | 
CCn1c(=O)oc2cc(OC)c(CCN3CCC(n4ccc5ccc(C(N)=O)cc54)CC3)cc21 [Compound 60, 1-{1-[2-(3-ethyl-6-methoxy-2-oxo-2,3-dihydrobenzoxazol-5-yl)ethyl]piperidin-4-yl}-1H-indole-6-carboxamide] | 9.55 | 9.62 | 0.9 | 0.52 mg/kg, sc |  | 
COc1cc2c(cc1CCN1CCC(n3ccc4ccc(C(N)=O)cc43)CC1)C(=O)N(C)CC2 [Compound 33, 1-{1-[2-(6-methoxy-2-methyl-1-oxo-1,2,3,4-tetrahydroisoquinoline-7-yl)ethyl]piperidin-4-yl}-1H-indole-6-carboxamide] | 9.77 | 9.92 | 0.7 | 0.12 mg/kg, sc |  | 
COc1ccc2c(C)noc2c1CCN1CCC(n2ccc3ccc(C(N)=O)cc32)CC1 [Compound 1, 1-{1-[2-(6-methoxy-3-methylbenz[d]isoxazol-7-yl)ethyl]piperidin-4-yl}-1H-indole-6-carboxamide] |  |  | 1.6 | 0.3 mg/kg, sc | 9.80 | 9.59
COc1cc2c(cc1CCN1CCC(n3ccc4ccc(C(N)=O)cc43)CC1)C(=O)N(C)CCO2 [Compound 9, 1-{1-[2-(8-methoxy-4-methyl-5-oxo-2,3,4,5-tetrahydrobenzo[f][1,4]oxazepin-7-yl)ethyl]piperidin-4-yl}-1H-indole-6-carboxamide] | 9.77 | 9.89 | 0.8 | 0.3 mg/kg, sc |  | 
CCc1nc2cc(CCN3CCC(n4ccc5ccc(C(N)=O)cc54)CC3)c(OC)cc2o1 [Compound 6, 1-{1-[2-(2-ethyl-6-methoxybenzoxazol-5-yl)ethyl]piperidin-4-yl}-1H-indole-6-carboxamide] | 9.70 | 9.70 | 1 | 0.35 mg/kg, sc |  | 
COc1cc2c(cc1CCN1CCC(n3ccc4ccc(C(N)=O)cc43)CC1)C(=O)CC2 [Compound 26, 1-{1-[2-(6-methoxy-3-oxoindan-5-yl)ethyl]piperidin-4-yl}-1H-indole-6-carboxamide] | 9.80 | 9.70 | 1.3 | 0.25 mg/kg, sc |  | 

Continued, in another order:

pIC50 [1, 3] | pIC50 [1, 4] | L/H ratio [1] | ED50 [2] | SMILES | pIC50 ([1]; High affinity IC50, [3H]MPPF 0.5 nM, receptor in high affinity (G-protein binding, MgCl2 10 mM) state) | pIC50 ([1]; Low affinity IC50, [3H]MPPF 0.5 nM, receptor in low affinity (G-protein non-binding, Gpp(NH)p 1 mM) state)
9.62 | 9.48 | 1.4 | 0.3 mg/kg, sc | COc1ccc2c(c1CCN1CCC(n3ccc4ccc(C(N)=O)cc43)CC1)OCCC2O (stereo not drawn) [Compound 46, 1-{1-[2-(4-hydroxy-7-methoxychroman-8-yl)ethyl]piperidin-4-yl}-1H-indole-6-carboxamide] |  | 
9.51 | 9.34 | 1.5 | 0.3 mg/kg, sc | COc1cc2c(cc1CCN1CCC(n3ccc4ccc(C(N)=O)cc43)CC1)N(C)CCC2 [Compound 53, 1-{1-[2-(6-methoxy-1-methyl-1,2,3,4-tetrahydroquinolin-7-yl)ethyl]piperidin-4-yl}-1H-indole-6-carboxamide] |  | 
9.66 | 9.57 | 1.2 | 0.28 mg/kg, sc | COc1ccc2c(c1CCN1CCC(n3ccc4ccc(C(N)=O)cc43)CC1)CCC2O (stereo not drawn) [Compound 49, 1-{1-[2-(1-hydroxy-5-methoxyindan-4-yl)ethyl]piperidin-4-yl}-1H-indole-6-carboxamide] |  | 
9.72 | 9.92 | 0.6 | 0.3 mg/kg, sc | CCN1C(=O)CCc2cc(OC)c(CCN3CCC(n4ccc5ccc(C(N)=O)cc54)CC3)cc21 [Compound 59, 1-{1-[2-(1-ethyl-6-methoxy-2-oxo-1,2,3,4-tetrahydroquinolin-7-yl)ethyl]piperidin-4-yl}-1H-indole-6-carboxamide] |  | 
9.59 | 9.70 | 0.8 | 0.37 mg/kg, sc | COc1ccc2c(c1CCN1CCC(n3ccc4ccc(C(N)=O)cc43)CC1)CCN(C)C2=O [Compound 34, 1-(1-(2-(6-methoxy-2-methyl-1-oxo-1,2,3,4-tetrahydroisoquinolin-5-yl)ethyl)piperidin-4-yl)-1H-indole-6-carboxamide] |  | 
9.70 | 9.89 | 0.7 | 0.19 mg/kg, sc | CNC(=O)c1ccc2ccn(C3CCN(CCc4cc5c(cc4OC)CCN(C)C5=O)CC3)c2c1 [Compound 38, 1-{1-[2-(6-methoxy-2-methyl-1-oxo-1,2,3,4-tetrahydroisoquinolin-7-yl)ethyl]piperidin-4-yl}-N-methyl-1H-indole-6-carboxamide] |  | 
9.57 | 9.64 | 0.9 | 0.2 mg/kg, sc | COc1ccc2c(=O)ccoc2c1CCN1CCC(n2ccc3ccc(C(N)=O)cc32)CC1 [Compound 35, 1-{1-[2-(7-methoxy-4-oxo-4H-chromen-8-yl)ethyl]piperidin-4-yl}-1H-indole-6-carboxamide] |  | 
